Measured values reported in patent publication US20160113931A1, “Method of treating and/or preventing neurodegenerative diseases” (University of Macau, priority 2014, published 2016).

Experiments:
[1] = test system: zebrafish; assay: MPTP-induced dopaminergic neuron loss in zebrafish (TH whole-mount immunostaining); type: in vivo, Danio rerio; conditions: positive control, MPTP 48 h
Method: Zebrafish at 1 dpf were exposed to BHDPC (3, 10, 30 μM) with or without MPTP for 48 h. Then fish were fixed for whole mount immunostaining. The morphology change of dopaminergic neurons in zebrafish brain was indicated by immunostaining with antibody against tyrosine hydroxylase (TH). Statistical analysis of TH density was accessed in each 10 fish/group. […] Zebrafish at 1 dpf were exposed to different concentrations of BHDPC with or without MPTP for 48 h. Then fish were fixed for whole mount immunostaining.
(§1) The AB strain of wild type zebrafish (Danio rerio) was maintained as described in the Zebrafish Handbook. Zebrafish were staged by days post fertilization […]. For breeding, groups of male and female (3:2) adult zebrafish were placed in 10-L plastic aquarium equipped with spawning nets in the evening. In the following morning, eggs were collected from the breeding group tanks. Normally developed fertilized eggs were selected under a stereomicroscope for further studies. The MPTP manipulation was performed with appropriate safety precautions and all MPTP-containing water was bleached.
Whole-mount immunostaining in zebrafish was performed as previously described. 3 dpf Zebrafish larvae were fixed with 4% paraformaldehyde in PBS for 30 min, […] (TH) staining was performed as previously described. Briefly, zebrafish were fixed in 4% paraformaldehyde in PBS for 5 h. Fixed samples were blocked (2% lamb serum and 0.1% BSA in PBST) for 1 h at room temperature. A mouse monoclonal anti-tyrosine hydroxylase (TH) antibody (Millipore, Billerica, MD, USA) was used as the primary antibody and incubated with samples overnight at 4° C. On the next day, samples were washed six times with PBST (each wash lasted 30 min), followed by incubation with Alexa Fluor® 488 goat anti-mouse antibodies. After immunostaining, zebrafish were mounted with 3.5% methylcellulose and photographed. Semi-quantification of the area of TH^+ cells was assessed by an investigator, unaware of the drug treatment, using Image-J software. Results are expressed as percentage of area of TH^+ cells in untreated normal control groups.
In this example, the in vivo animal model was used to determine the neuroprotective effect of BHDPC. Anti-tyrosine hydroxylase (TH) whole mount immunostaining was used to determine dopaminergic neuronal populations in zebrafish larvae (FIG. 15A). TH activity is the key enzyme responsible for dopamine biosynthesis in the CNS. […] The dopamine reuptake inhibitor nomifensine (Nom), which protected against MPTP-induced neurotoxicity in vivo was used as a positive control. The treatment of larvae with 30 μM of nomifensine, a positive control drug attenuated MPTP-induced neurotoxicity, with TH^+ density […] by 30% compared to the MPTP group.
L-deprenyl, which is a substituted phenethylamine used in treatment of early Parkinson's disease, was used as a positive control.

[2] = test system: zebrafish; assay: MPTP-induced deficit of locomotion behavior in zebrafish larvae; type: in vivo, Danio rerio; conditions: 150 μM L-dopa with MPTP, positive control
Method: Three dpf zebrafish embryos were co-incubated with 10 μM MPTP and BHDPC at the indicated concentrations for 96 hours, and zebrafish larval co-treated with MPTP and 150 μM L-dopa was used as positive control. After treatment, zebrafish were collected to perform locomotion behavior test using Viewpoint Zebrabox system and total distances travelled in 10 min were calculated.
as §1
In addition, MPTP markedly altered the swimming behavior of the zebrafish as a consequence of DA neuronal injury. […] BHDPC ameliorated MPTP-induced deficit of swimming behavior. At the same condition, MPTP-induced deficit of swimming behavior were rescued by positive controls, levodopa (L-dopa) (FIG. 16).

## C#CCN(C)[C@H](C)Cc1ccccc1 [L-deprenyl, reference compound]
[1]
  TH+ density compared to the MPTP group (FIG. 15B): significant increase

## N[C@@H](Cc1ccc(O)c(O)c1)C(=O)O [levodopa, reference compound]
[2]
  MPTP-induced deficit of swimming behavior (total distance travelled in 10 min): rescued

## CN1Cc2c(N)cccc2C(c2ccccc2)C1 (stereo not drawn) [nomifensine, reference compound]
[1]; 30 μM nomifensine
  TH+ density reduced by, compared to the MPTP group: 30%
